The structures appear in SMILES notation. In brackets after ≈: the same amount, converted by molar mass.

The nature of series [1]: CHI of six steroids (structure-absorption experiment). It counts as physicochemical. Particulars: chromatographical hydrophobicity index, isocratical conditions. The protocol: The beneficial effect of the increasing lipophilicity for the transdermal absorption was proven by carrying out a structure-absorption experiment with six different steroids. In the following publications: Int. J. Pharm. 217:1 (2001), and J. Chromatography 49:631 (1993), it has been shown that the chromatographical hydrophobicity index (CHI) measured under isocratical conditions is a reliable descriptor of lipophilicity. The CHI values of the investigated steroids were determined according to these experiments (Table 3) and correlated with the measured stratum corneum/water distribution coefficients.

A short description of series [2]: Equilibrium solubility in distilled water (UV spectrophotometry). It counts as physicochemical. Particulars: thermodynamic from solid, room temperature. How it is done:
The determination of equilibrium solubility of E and Z isomers of norelgestromin was carried out in distilled water. 20 mg of norelgestromin was added to 20 mL of distilled water at room temperature. The suspension was stirred continuously and samples were withdrawn from time to time. The samples were filtered, and the norelgestromin content of the filtrates was determined by a spectrophotometrical method measuring UV absorption. The spectrophotometrical measurements were performed on a VARIAN Cary 3E spectrophotometer at room temperature.

Series [3] in a line: Lipophilicity by isocratic reversed-phase HPLC (k′, CHI). It is filed as physicochemical. Particulars: for Polarity (k′, HPLC): Nova-Pak C18, acetonitrile mobile phase, 25° C.; for Polarity (CHI index, HPLC): acetonitrile concentration of the mobile phase where log k′=0. The protocol:
Lipophilicity was determined by an HPLC method. The HPLC measurements were performed on a Thermo Separation Product (SpectraSystem P4000 and SpectraFOCUS Forward Optical Scanning Detector) HPLC instrument. Data were analyzed by ChromQuest (ver. 2.51) software.
For reversed-phase HPLC measurements, a Nova-Pak C18 column was used (dimension of 4 μm×4.6 mm×250 mm: Waters, Ireland). Detection was performed at λ=280 nm and 25° C. The flow rate of the mobile phase was 1.0 mL/min. HPLC gradient grade acetonitrile was used as organic component (Merck KGaA., Darmstadt, Germany). The retention data of the two isomers were obtained by isocratical analysis of the mobile phases containing different amounts of acetonitrile. The void time (t0) was determined by injection of methanol.
Samples were dissolved in a 1:1 mixture of acetonitrile:water in a concentration of 1 mg/4 mL. The log k′ values were calculated from the mean retention time measured after two subsequent injections of 10 μL volume (log k′=log((tR−t0)/t0)). The log k′ values were represented as a function of the concentration of acetonitrile.
The chromatographical hydrophobicity index (CHI) is a measure of the lipophilic character of the compounds in the reversed phase HPLC measurements. By definition, the CHI parameter is that concentration of acetonitrile of the mobile phase where log k′=0.

A short description of series [4]: Metabolic stability and clearance in human liver microsomes. It counts as in vitro ADME. Particulars: human liver microsomes 1 mg/mL, 5 μM isomer, mean of 3 parallel measurements; for Metabolic stability: F% (metabolic bioavailability). How it is done:
The metabolic stability of norelgestromin E and Z isomers was examined in human liver microsomes. The 2.5 mL incubation mixture contained 6 mM of Na-pyrophosphate, 5 mM of MgCl2, 5 mM of glucose-6-phosphate, 1 U/mL of glucose 6-phosphate dehydrogenase, human liver microsomes (1 mg/mL) and 5 μM of norelgestromin E or Z isomers. The pH was adjusted with 100 mM of Tris-HCl buffer to pH 7.4. The reaction was started by the addition of 5 mM of NADPH. 0.5 mL samples were taken at 0.5 and 20 minutes with immediate precipitation by 0.5 mL of ice-cold methanol. 1 mL precipitated samples were centrifuged for 30 min at 1200 g, and 10 μL of supernatant was injected into the HPLC.
Analytical measurements were conducted using a Merck-Hitachi HPLC system, with UV monitoring at 244 nm. Unchanged material was measured and intrinsic clearance (Clint) and metabolic bioavailability (F%) was calculated with the following equations: dc/dt/c0=Clint, (mL/min×g protein), where dc/dt is the concentration change in a given period of time and c0 is the initial concentration of the norelgestromin isomer (measured in the 0 min sample). Additionally, Clint1×45=Clint2 (mL/min×g liver) and EH=Clin2/Clint2+HBF, where EH is hepatic extraction and HBF is the hepatic blood flow. Finally the metabolic stability: […]
For statistical analysis, Student's t-test was used (Microsoft Excel). The results summarized in Table 2 are calculated as a mean of 3 parallel measurements.
(In general: Microsomes from liver hold many membrane-bound enzymes, among them those of drug oxidation.)

Series [5] has as its system Caco-2 human adenocarcinoma (epithelial) cell line monolayers. Put plainly: Caco-2 permeability measurement. It counts as in vitro ADME. Particulars: Caco-2 monolayer, luminal to basolateral, 50 μM. The protocol: Drug absorption studies were performed with Caco-2 human adenocarcinoma (epithelial) cell line monolayers as an in vitro model. Passive flux characteristics of drugs across the Caco-2 monolayer have shown a correlation with human oral bioavailability.
Caco-2 cells obtained from American Type Culture collection, Rockville, Md., (ATCC) were grown at 37° C. in an atmosphere of 5% CO2 in Dulbecco's modified eagle medium supplemented with 10% heat inactivated fetal bovine serum (GIBCOBRL 11360-039) and antibiotics: penicillin 100 U/mL, and streptomycin 100 μg/mL (GIBCOBRL 15140-031).
Confluent cell monolayers grown in an incubator (at 37° C. with 5% CO2/[…] and 95% humidity) were subcultured every seven days by treatment with 0.25% trypsin containing 1 mM EDTA.
19-23-day-old confluent monolayers of fully differentiated Caco-2 cells were used for transport studies after 6-10 passages.
EHS Cell Attachment Matrix (Promega G5971), Minimum Essential medium Eagle (MEM) with Earle salts, L-Glutamine (GIBCOBRL 41500-091) and Transwell Polycarbonate Membrane (Costar 3401) were used.
Coated Transwells with EHS Cell Attachment Matrix (Promega G5971) and 200000-500000 Caco-2 cells are applied/inserted. […]
The concentrations of the isomers were determined by liquid chromatography with ultraviolet (HPLC/UV) analysis. […]
Dim.: 125−3 mm.+guard. […] Peak quantitation: height; calculation method: EXT-STD.
Background: Passage across Caco-2 layers is used to estimate intestinal permeability.

Consider `CC(=O)[C@H]1CC[C@H]2[C@@H]3CC=C4C[C@@H](O)CC[C@]4(C)[C@H]3CC[C@]12C` [Pregnenolone], for which, in series [1], the CHI is given as 95.36.

Consider `C[C@]12CC[C@@H]3c4ccc(O)cc4CC[C@H]3[C@@H]1C[C@@H](O)[C@@H]2O` [Estriol], for which the CHI in series [1] was found to be 40.45.

Molecule `C[C@]12CC[C@H]3[C@@H](CCC4=CC(=O)CC[C@@]43C)[C@@H]1CC[C@@H]2O` [Testosterone] displayed a CHI in series [1] of 75.87.

The molecule `C[C@]12CCC(=O)C=C1CC[C@@H]1[C@@H]2CC[C@@]2(C)[C@H]1CC[C@]2(O)C(=O)CO` [Cortexolone] registered a CHI in series [1] of 54.87.

In series [2], `C#C[C@]1(O)CC[C@H]2[C@@H]3CCC4=C/C(=N/O)CC[C@@H]4[C@H]3CC[C@@]21CC` (single isomer, unassigned; isomer d) [E-isomer, d-(17α)-13-ethyl-17-hydroxy-18,19-dinorpregn-4-ene-20-yn-3-one-(3E)-oxime] displayed a solubility of 3.8 µg/mL (≈ 11.6 µM). In series [3], the “Polarity (k′, HPLC)” value was 1.02 and the “Polarity (CHI index, HPLC)” value was found to be 74. Also, in series [4], the Metabolic stability worked out at 86.7 ± 1.67 and the “Metabolic clearance (mL/min g liver)” value is given as 0.1815 ± 0.026 mL/min g liver. Further, the “Concentration on the abluminal side (μM in the 30th min)” value in series [5] came out at 1.27 ± 0.56 µM.

As to `C#C[C@]1(O)CC[C@H]2[C@@H]3CCC4=C/C(=N\O)CC[C@@H]4[C@H]3CC[C@@]21CC` (single isomer, unassigned; isomer d) [Z-isomer, d-(17α)-13-ethyl-17-hydroxy-18,19-dinorpregn-4-ene-20-yn-3-one-(3Z)-oxime], in series [2], the solubility was 12.1 µg/mL (≈ 37 µM). For the same molecule, in series [3], the “Polarity (k′, HPLC)” value was 1.46 and the “Polarity (CHI index, HPLC)” value was found to be 70. Also, in series [4], the Metabolic stability was 91.9 ± 1.52 and the “Metabolic clearance (mL/min g liver)” value worked out at 0.1042 ± 0.021 mL/min g liver. The “Concentration on the abluminal side (μM in the 30th min)” value in series [5] was determined as 1.98 ± 0.78 µM.

On to `C[C@]12CCC(=O)C=C1CC[C@@H]1[C@@H]2[C@@H](O)C[C@@]2(C)[C@H]1CC[C@]2(O)C(=O)CO` [Hydrocortisone], for which, in series [1], the CHI is 33.8.

A word on the solubility: it is the concentration that dissolves in the medium under given conditions. Higher therefore signals much dissolved substance.
